Key:
[1] = XRPD comparison of crystal forms before and after DSC heating; type: physicochemical
Protocol: XRPD test was carried out on the samples of crystal forms A, B and I after the DSC test.

[2] = XRPD comparison of crystal forms before and after the DVS test; type: physicochemical; conditions: for Crystal form change before and after the DVS test (XRPD): 25° C., water, 50%-95%-0%-95%-50% RH; for Stability / sensitivity to humidity: conclusion from XRPD before and after DVS test
Protocol: XRPD test was carried out on the samples of crystal forms A, B and I after the DVS test, and the XRPD results of each crystal form before and after the DVS test were compared.
DVS instrument parameters:
Maximum step size: 360 minutes

[3] = Physical stability test (XRPD) of crystal forms under different placement conditions; type: physicochemical; conditions: for Physical stability, conclusion from Table 7: C, D, H changed after one week, A, B, I did not change after one month; for Physical stability (XRPD): 1 week
Protocol: Physical stability test was carried out on the samples of crystal forms A, B, C, D, H and I under different placement conditions. The placement conditions were:
1. 40° C., humidity 75%, open/sealed;
2. 25° C., humidity 60%, open; and […]

[4] = Chemical stability under different humidity conditions, impurity content by HPLC; type: physicochemical; conditions: for Total impurity content (%): HPLC; for Impurity content level / Change of impurity content under various conditions: conclusion from Table 8; for Change of impurity content under various conditions: humidity 0%, 75%, 92.5% (25° C.), up to 30 days
Protocol: The samples of crystal forms A, B and I were left to stand under different humidity conditions to test their chemical stability. The impurity content was determined by HPLC (HPLC detection conditions: ZORBAX SB-C18 4.6*150 mm 3.5 μm, mobile phase: TFA/methanol/water, detection wavelength: 223 nm).

[5] = XRPD after standing at 0% humidity for 10 days; type: physicochemical
Source text: The samples of crystal forms A and B were left to stand under the condition of 0% humidity for 10 days, and subjected to XRPD to investigate the stability of the crystal form under the low humidity condition.

prolyl hydroxylase = conditions: as disclosed in WO2017059623; cited from earlier work
[6] = Chemical stability under different placement conditions; type: physicochemical; conditions: 40° C., humidity 75%, open/sealed, 25° C., humidity 60%, or 2-6° C.
[7] = Humidity 92.5% (25° C.), 5 days
[8] = Humidity 92.5% (25° C.), 10 days
[9] = Humidity 92.5% (25° C.), 30 days

Row | SMILES | Crystal form change before and after the DVS test (XRPD) [2] | Physical stability, conclusion from Table 7 [3] | Total impurity content (%) ([4]; Day 0) | Total impurity content (%) ([4]; Humidity 0% (25° C.), 5 days) | Total impurity content (%) ([4]; Humidity 0% (25° C.), 10 days) | Total impurity content (%) ([4]; Humidity 0% (25° C.), 30 days) | Total impurity content (%) ([4]; Humidity 75% (25° C.), 5 days) | Total impurity content (%) ([4]; Humidity 75% (25° C.), 10 days) | Total impurity content (%) ([4]; Humidity 75% (25° C.), 30 days) | Total impurity content (%) [4, 7] | Total impurity content (%) [4, 8] | Total impurity content (%) [4, 9] | Impurity content level [4] | Change of impurity content under various conditions [4] | Physical stability (XRPD) ([3]; 40° C. open (humidity 75%)) | also measured
1 | O=C(O)CNC(=O)c1ncc(C#CCOc2ccc(Cl)cc2)cc1O [crystal form A, 2-(3-hydroxy-5-(3-p-chlorophenoxypropyn-1-yl))picolinamido acetic acid] | did not change, but the crystallinity thereof decreased | good physical stability | 1.88% | 1.89% | 2.00% | 2.14% | 1.92% | 1.97% | 2.17% | 1.96% | 1.99% | 2.05% | relatively high impurity content | changed significantly |  | Crystal form change after DSC heating (XRPD) ([1]; after heating to 105° C.): changed; Crystal form change under low humidity (XRPD) [5]: changed
2 | O=C(O)CNC(=O)c1ncc(C#CCOc2ccc(Cl)cc2)cc1O [crystal form C, 2-(3-hydroxy-5-(3-p-chlorophenoxypropyn-1-yl))picolinamido acetic acid] |  | poor physical stability |  |  |  |  |  |  |  |  |  |  |  |  | x (x means that the crystal form changed) | Physical stability (XRPD) ([3]; 4° C. sealed): x (x means that the crystal form changed); Physical stability (XRPD) ([3]; 25° C. open (humidity 60%)): x (x means that the crystal form changed); Physical stability (XRPD) ([3]; 40° C. sealed (humidity 75%)): x (x means that the crystal form changed)
3 | O=C(O)CNC(=O)c1ncc(C#CCOc2ccc(Cl)cc2)cc1O [crystal form D, 2-(3-hydroxy-5-(3-p-chlorophenoxypropyn-1-yl))picolinamido acetic acid] |  | poor physical stability |  |  |  |  |  |  |  |  |  |  |  |  | x (x means that the crystal form changed) | Physical stability (XRPD) ([3]; 4° C. sealed): x (x means that the crystal form changed); Physical stability (XRPD) ([3]; 25° C. open (humidity 60%)): x (x means that the crystal form changed); Physical stability (XRPD) ([3]; 40° C. sealed (humidity 75%)): x (x means that the crystal form changed)
4 | O=C(O)CNC(=O)c1ncc(C#CCOc2ccc(Cl)cc2)cc1O [compound of formula (I), 2-(3-hydroxy-5-(3-p-chlorophenoxypropyn-1-yl))picolinamido acetic acid] |  |  |  |  |  |  |  |  |  |  |  |  |  |  |  | Inhibition effect on prolyl hydroxylase (prolyl hydroxylase): excellent inhibition effect

Now from value to compound, other results behind:

Row | Crystal form change before and after the DVS test (XRPD) [2] | Physical stability, conclusion from Table 7 [3] | Total impurity content (%) ([4]; Day 0) | Total impurity content (%) ([4]; Humidity 0% (25° C.), 5 days) | Total impurity content (%) ([4]; Humidity 0% (25° C.), 10 days) | Total impurity content (%) ([4]; Humidity 0% (25° C.), 30 days) | Total impurity content (%) ([4]; Humidity 75% (25° C.), 5 days) | Total impurity content (%) ([4]; Humidity 75% (25° C.), 10 days) | Total impurity content (%) ([4]; Humidity 75% (25° C.), 30 days) | Total impurity content (%) [4, 7] | Total impurity content (%) [4, 8] | Total impurity content (%) [4, 9] | Impurity content level [4] | Change of impurity content under various conditions [4] | SMILES | Physical stability (XRPD) ([3]; 40° C. open (humidity 75%)) | also measured
5 | changed | good physical stability | 1.56% | 1.57% | 1.58% | 2.06% | 1.72% | 1.78% | 1.88% | 1.90% | 2.24% | 2.22% | relatively high impurity content | changed significantly | O=C(O)CNC(=O)c1ncc(C#CCOc2ccc(Cl)cc2)cc1O [crystal form I, 2-(3-hydroxy-5-(3-p-chlorophenoxypropyn-1-yl))picolinamido acetic acid] |  | Crystal form change after DSC heating (XRPD) ([1]; after heating to 105° C.): changed; Stability / sensitivity to humidity [2]: most sensitive to humidity
6 |  | poor physical stability |  |  |  |  |  |  |  |  |  |  |  |  | O=C(O)CNC(=O)c1ncc(C#CCOc2ccc(Cl)cc2)cc1O [crystal form H, 2-(3-hydroxy-5-(3-p-chlorophenoxypropyn-1-yl))picolinamido acetic acid] | x (x means that the crystal form changed) | 
7 | did not change | good physical stability | 0.95% | 0.97% | 1.03% | 1.09% | 0.94% | 0.98% | 1.06% | 0.98% | 0.98% | 1.02% | low impurity content | substantially did not increase | O=C(O)CNC(=O)c1ncc(C#CCOc2ccc(Cl)cc2)cc1O [crystal form B, 2-(3-hydroxy-5-(3-p-chlorophenoxypropyn-1-yl))picolinamido acetic acid] |  | Crystal form change after DSC heating (XRPD) ([1]; after heating to 135° C.): did not change; Stability / sensitivity to humidity [2]: most stable to humidity; Chemical stability under different placement conditions [6]: excellent chemical stability; Crystal form change under low humidity (XRPD) [5]: did not change
